Source: patent US20060029743A1, “Wood preservatives and methods of wood preservation” (priority 2004, published 2006)
≈ marks a conversion by molar mass, not a printed value. Like-named read-outs stand apart in the source and are kept apart here.

Assays:
Test in all cases: 6-well plate assay, minimal inhibitory concentration
Assay type in all cases: cell-based
Antrodia vaillantii = conditions: for MIC: Fibroporia vaillantii, 168 h, read-out: Effectiveness at Inhibiting Wood-Rotting Fungi, BR3 (minimal inhibitory concentration)
Protocol: (§1) The minimal inhibitory concentration of fungicides against eight fungi was determined in 6-well microtiter plates. Minimal inhibitory concentration is defined as the lowest concentration at which no fungus growth is evident after seven days. A group of eight fungi were used in a screen to identify potential active ingredients to preserve wood. The eight fungi, their classification, and the growth media used to culture them are listed below:
(§2) Growth media were purchased from Difco (from Beckton Dickinson and Co., Sparks, Md.). The growth media were added to water to 2% w/v and autoclaved at 121° C. for 30 min. Autoclaved media were allowed to cool down to ˜50° C. Test chemicals were dissolved in DMSO (dimethyl sulfoxide) individually at 10 mg/mL to generate stock solutions. An appropriate amount of a stock solution was then added to the appropriate growth medium at 50° C. to make up the test media containing various concentrations of individual test chemicals. 10 mL of the medium was added to each well of a 6-well plate and allowed to solidify at room temperature. For each plate, the first well had no chemical, and the remaining five wells contained a particular test chemical at five different concentrations. Eight such plates were prepared for each chemical, using the eight media listed above for the eight test organisms.
(§3) After the media solidified and cooled, a plug (˜2 mm×2 mm) of agar growth medium with fresh grown mycelium from the appropriate fungal culture was used to inoculate each well. The plate was placed in an incubator, and the growth of the fungus monitored. After 4 to 7 days, the growth was scored manually.

Chaetomium globosum = conditions: for MIC: Chaetomium globosum, 168 h, read-out: Effectiveness at Inhibiting Wood-Rotting Fungi, SR1 (minimal inhibitory concentration)
Protocol: as §1, §2, §3

Gloeophyllum trabeum = conditions: for MIC: Gloeophyllum trabeum, 168 h, read-out: Effectiveness at Inhibiting Wood-Rotting Fungi, BR2 (minimal inhibitory concentration)
Protocol: as §1, §2, §3

Irpex lacteus = conditions: for MIC: Irpex lacteus, 168 h, read-out: Effectiveness at Inhibiting Wood-Rotting Fungi, WR2 (minimal inhibitory concentration)
Protocol: as §1, §2, §3

[1] = test system: Phanerochaete chrysosporium; conditions: for MIC: Phanerodontia chrysosporium, 168 h, read-out: Effectiveness at Inhibiting Wood-Rotting Fungi, WR3 (minimal inhibitory concentration)
Protocol: as §1, §2, §3

Postia placenta = conditions: for MIC: Rhodonia placenta, 168 h, read-out: Effectiveness at Inhibiting Wood-Rotting Fungi, BR1 (minimal inhibitory concentration)
Protocol: as §1, §2, §3

Trametes versicolor = conditions: for MIC: Trametes versicolor, 168 h, read-out: Effectiveness at Inhibiting Wood-Rotting Fungi, WR1 (minimal inhibitory concentration)
Protocol: as §1, §2, §3

[2] = 6-well agar plate, lowest concentration with no growth after seven days

CC(C)(C)C(O)C(Oc1ccc(Cl)cc1)n1cncn1 (stereo not shown) [Baytan]
Effectiveness at Inhibiting Wood-Rotting Fungi, BR3 (minimal inhibitory concentration) (Antrodia vaillantii; [2]): 1 (“1” indicates effective inhibition at 1 ppm or less)
Effectiveness at Inhibiting Wood-Rotting Fungi, SR1 (minimal inhibitory concentration) (Chaetomium globosum; [2]): 3 (“3” indicates inhibition (if any) only at >100 ppm)
Effectiveness at Inhibiting Wood-Rotting Fungi, BR2 (minimal inhibitory concentration) (Gloeophyllum trabeum; [2]): 1 (“1” indicates effective inhibition at 1 ppm or less)
Effectiveness at Inhibiting Wood-Rotting Fungi, WR2 (minimal inhibitory concentration) (Irpex lacteus; [2]): 1 (“1” indicates effective inhibition at 1 ppm or less)
Effectiveness at Inhibiting Wood-Rotting Fungi, WR3 (minimal inhibitory concentration) [1, 2]: 1 (“1” indicates effective inhibition at 1 ppm or less)
Effectiveness at Inhibiting Wood-Rotting Fungi, BR1 (minimal inhibitory concentration) (Postia placenta; [2]): 2 (“2” indicates inhibition at about 1-100 ppm)
Effectiveness at Inhibiting Wood-Rotting Fungi, WR1 (minimal inhibitory concentration) (Trametes versicolor; [2]): 1 (“1” indicates effective inhibition at 1 ppm or less)

CCCC1COC(Cn2cncn2)(c2ccc(Cl)cc2Cl)O1 (stereo not shown) [Propiconazole]
MIC (Antrodia vaillantii; [2]): < 1 µg/mL
MIC (Chaetomium globosum; [2]): < 1 µg/mL
MIC (Gloeophyllum trabeum; [2]): < 1 µg/mL
MIC (Irpex lacteus; [2]): < 1 µg/mL
MIC [1, 2]: < 1 µg/mL
MIC (Postia placenta; [2]): < 1 µg/mL
MIC (Trametes versicolor; [2]): < 1 µg/mL

O=[N+]([O-])c1cc(C(F)(F)F)c(Cl)c([N+](=O)[O-])c1Nc1ncc(C(F)(F)F)cc1Cl [Fluazinam]
MIC (Antrodia vaillantii; [2]): < 1 µg/mL
MIC (Chaetomium globosum; [2]): < 1 µg/mL
MIC (Gloeophyllum trabeum; [2]): < 1 µg/mL
MIC (Irpex lacteus; [2]): 1 to 100 µg/mL (≈ 2.15 to 215 µM)
MIC [1, 2]: 1 to 100 µg/mL (≈ 2.15 to 215 µM)
MIC (Postia placenta; [2]): < 1 µg/mL
MIC (Trametes versicolor; [2]): 1 to 100 µg/mL (≈ 2.15 to 215 µM)

COC(=O)Nc1nc2ccccc2[nH]1 [Carbendazim]
MIC (Antrodia vaillantii; [2]): 1 to 100 µg/mL (≈ 5.23 to 523 µM)
MIC (Chaetomium globosum; [2]): < 1 µg/mL
MIC (Gloeophyllum trabeum; [2]): > 100 µg/mL
MIC (Irpex lacteus; [2]): 1 to 100 µg/mL (≈ 5.23 to 523 µM)
MIC [1, 2]: 1 to 100 µg/mL (≈ 5.23 to 523 µM)
MIC (Postia placenta; [2]): 1 to 100 µg/mL (≈ 5.23 to 523 µM)
MIC (Trametes versicolor; [2]): > 100 µg/mL

O=[N+]([O-])c1c(Cl)c(Cl)c(Cl)c(Cl)c1Cl [Pentachloronitrobenzene]
MIC (Antrodia vaillantii): > 100 µg/mL
MIC (Chaetomium globosum): < 1 µg/mL
MIC (Gloeophyllum trabeum): 1 to 100 µg/mL (≈ 3.39 to 339 µM)
MIC (Irpex lacteus): > 100 µg/mL
MIC [1]: > 100 µg/mL
MIC (Postia placenta): 1 to 100 µg/mL (≈ 3.39 to 339 µM)
MIC (Trametes versicolor): > 100 µg/mL

Oc1cccc2cccnc12 [8-Hydroxyquinoline]
MIC (Antrodia vaillantii): < 1 µg/mL
MIC (Chaetomium globosum): > 100 µg/mL
MIC (Gloeophyllum trabeum): > 100 µg/mL
MIC (Irpex lacteus): 1 to 100 µg/mL (≈ 6.89 to 689 µM)
MIC [1]: > 100 µg/mL
MIC (Postia placenta): 1 to 100 µg/mL (≈ 6.89 to 689 µM)
MIC (Trametes versicolor): 1 to 100 µg/mL (≈ 6.89 to 689 µM)

CN(C)C(=S)[S-].CN(C)C(=S)[S-].CN(C)C(=S)[S-].[Fe+3] [Ferbam]
Effectiveness at Inhibiting Wood-Rotting Fungi, BR3 (minimal inhibitory concentration) (Antrodia vaillantii; [2]): 2 (“2” indicates inhibition at about 1-100 ppm)
Effectiveness at Inhibiting Wood-Rotting Fungi, SR1 (minimal inhibitory concentration) (Chaetomium globosum; [2]): 2 (“2” indicates inhibition at about 1-100 ppm)
Effectiveness at Inhibiting Wood-Rotting Fungi, BR2 (minimal inhibitory concentration) (Gloeophyllum trabeum; [2]): 3 (“3” indicates inhibition (if any) only at >100 ppm)
Effectiveness at Inhibiting Wood-Rotting Fungi, WR2 (minimal inhibitory concentration) (Irpex lacteus; [2]): 2 (“2” indicates inhibition at about 1-100 ppm)
Effectiveness at Inhibiting Wood-Rotting Fungi, WR3 (minimal inhibitory concentration) [1, 2]: 2 (“2” indicates inhibition at about 1-100 ppm)
Effectiveness at Inhibiting Wood-Rotting Fungi, BR1 (minimal inhibitory concentration) (Postia placenta; [2]): 1 (“1” indicates effective inhibition at 1 ppm or less)
Effectiveness at Inhibiting Wood-Rotting Fungi, WR1 (minimal inhibitory concentration) (Trametes versicolor; [2]): 2 (“2” indicates inhibition at about 1-100 ppm)

CC1=C(C(=O)Nc2ccccc2)SCCO1 [Carboxin]
MIC (Antrodia vaillantii): < 1 µg/mL
MIC (Chaetomium globosum): 1 to 100 µg/mL (≈ 4.25 to 425 µM)
MIC (Gloeophyllum trabeum): < 1 µg/mL
MIC (Irpex lacteus): < 1 µg/mL
MIC [1]: < 1 µg/mL
MIC (Postia placenta): 1 to 100 µg/mL (≈ 4.25 to 425 µM)
MIC (Trametes versicolor): < 1 µg/mL

CC(C)(C)C(O)(CCc1ccc(Cl)cc1)Cn1cncn1 (stereo not shown) [Tebuconazole]
MIC (Antrodia vaillantii; [2]): < 1 µg/mL
MIC (Chaetomium globosum; [2]): 1 to 100 µg/mL (≈ 3.25 to 325 µM)
MIC (Gloeophyllum trabeum; [2]): < 1 µg/mL
MIC (Irpex lacteus; [2]): < 1 µg/mL
MIC [1, 2]: < 1 µg/mL
MIC (Postia placenta; [2]): < 1 µg/mL
MIC (Trametes versicolor; [2]): < 1 µg/mL

CON=C(C(=O)OC)c1ccccc1CON=C(C)c1cccc(C(F)(F)F)c1 [Trifloxystrobin]
MIC (Antrodia vaillantii; [2]): < 1 µg/mL
MIC (Chaetomium globosum; [2]): > 100 µg/mL
MIC (Gloeophyllum trabeum; [2]): < 1 µg/mL
MIC (Irpex lacteus; [2]): > 100 µg/mL
MIC [1, 2]: > 100 µg/mL
MIC (Postia placenta; [2]): 1 to 100 µg/mL (≈ 2.45 to 245 µM)
MIC (Trametes versicolor; [2]): > 100 µg/mL

CC(Cc1ccc(C(C)(C)C)cc1)CN1C[C@@H](C)O[C@@H](C)C1 (stereo partly shown) [Fenpropimorph]
MIC (Antrodia vaillantii; [2]): 1 to 100 µg/mL (≈ 3.3 to 330 µM)
MIC (Chaetomium globosum; [2]): > 100 µg/mL
MIC (Gloeophyllum trabeum; [2]): < 1 µg/mL
MIC (Irpex lacteus; [2]): 1 to 100 µg/mL (≈ 3.3 to 330 µM)
MIC [1, 2]: 1 to 100 µg/mL (≈ 3.3 to 330 µM)
MIC (Postia placenta; [2]): < 1 µg/mL
MIC (Trametes versicolor; [2]): 1 to 100 µg/mL (≈ 3.3 to 330 µM)

CO/C=C(\C(=O)OC)c1ccccc1Oc1cc(Oc2ccccc2C#N)ncn1 [Axoxystrobin]
Effectiveness at Inhibiting Wood-Rotting Fungi, BR3 (minimal inhibitory concentration) (Antrodia vaillantii; [2]): 1 (“1” indicates effective inhibition at 1 ppm or less)
Effectiveness at Inhibiting Wood-Rotting Fungi, SR1 (minimal inhibitory concentration) (Chaetomium globosum; [2]): 3 (“3” indicates inhibition (if any) only at >100 ppm)
Effectiveness at Inhibiting Wood-Rotting Fungi, BR2 (minimal inhibitory concentration) (Gloeophyllum trabeum; [2]): 1 (“1” indicates effective inhibition at 1 ppm or less)
Effectiveness at Inhibiting Wood-Rotting Fungi, WR2 (minimal inhibitory concentration) (Irpex lacteus; [2]): 3 (“3” indicates inhibition (if any) only at >100 ppm)
Effectiveness at Inhibiting Wood-Rotting Fungi, WR3 (minimal inhibitory concentration) [1, 2]: 3 (“3” indicates inhibition (if any) only at >100 ppm)
Effectiveness at Inhibiting Wood-Rotting Fungi, BR1 (minimal inhibitory concentration) (Postia placenta; [2]): 1 (“1” indicates effective inhibition at 1 ppm or less)
Effectiveness at Inhibiting Wood-Rotting Fungi, WR1 (minimal inhibitory concentration) (Trametes versicolor; [2]): 3 (“3” indicates inhibition (if any) only at >100 ppm)

c1ccc2[nH]c(-c3cscn3)nc2c1 [Thiabendazole]
MIC (Antrodia vaillantii; [2]): > 100 µg/mL
MIC (Chaetomium globosum; [2]): < 1 µg/mL
MIC (Gloeophyllum trabeum; [2]): > 100 µg/mL
MIC (Irpex lacteus; [2]): > 100 µg/mL
MIC [1, 2]: > 100 µg/mL
MIC (Postia placenta; [2]): > 100 µg/mL
MIC (Trametes versicolor; [2]): > 100 µg/mL

CCCCNC(=O)n1c(NC(=O)OC)nc2ccccc21 [Benomyl]
MIC (Antrodia vaillantii; [2]): 1 to 100 µg/mL (≈ 3.44 to 344 µM)
MIC (Chaetomium globosum; [2]): < 1 µg/mL
MIC (Gloeophyllum trabeum; [2]): > 100 µg/mL
MIC (Irpex lacteus; [2]): > 100 µg/mL
MIC [1, 2]: 1 to 100 µg/mL (≈ 3.44 to 344 µM)
MIC (Postia placenta; [2]): 1 to 100 µg/mL (≈ 3.44 to 344 µM)
MIC (Trametes versicolor; [2]): > 100 µg/mL

Nc1nc(=O)[nH]cc1F [5-Fluorocytosine]
MIC (Antrodia vaillantii; [2]): 1 to 100 µg/mL (≈ 7.75 to 775 µM)
MIC (Chaetomium globosum; [2]): > 100 µg/mL
MIC (Gloeophyllum trabeum; [2]): > 100 µg/mL
MIC (Irpex lacteus; [2]): > 100 µg/mL
MIC [1, 2]: > 100 µg/mL
MIC (Postia placenta; [2]): < 1 µg/mL
MIC (Trametes versicolor; [2]): 1 to 100 µg/mL (≈ 7.75 to 775 µM)

CCCN(CCOc1c(Cl)cc(Cl)cc1Cl)C(=O)n1ccnc1 [Prochloraz]
MIC (Antrodia vaillantii): 1 to 100 µg/mL (≈ 2.65 to 265 µM)
MIC (Chaetomium globosum): < 1 µg/mL
MIC (Gloeophyllum trabeum): > 100 µg/mL
MIC (Irpex lacteus): 1 to 100 µg/mL (≈ 2.65 to 265 µM)
MIC [1]: 1 to 100 µg/mL (≈ 2.65 to 265 µM)
MIC (Postia placenta): > 100 µg/mL
MIC (Trametes versicolor): 1 to 100 µg/mL (≈ 2.65 to 265 µM)
